Where no end group is shown, it is not given here. [ ]: non-standard residue; d: D form.
Columns and labels:
[1] = tested on: null-FRT cells not expressing CFTR; experiment: Whole-cell patch-clamp, null-FRT cells; format: cell-based, Fischer rat; conditions: untransfected FRT, 20 µM FSK + 10 µM Esc peptides or GEN, n ≥ 3
Experimental: For whole-cell experiments the extracellular (bath) solution contained (in mM): 150 NaCl, 1 CaCl2, 1 MgCl2, 10 glucose, 10 mannitol, 10 Na-HEPES (pH 7.4). The pipette (intracellular) solution contained (in mM): 120 CsCl, 10 TEA-Cl, 0.5 EGTA, 1 MgCl2, 10 Cs-HEPES, 40 mannitol, 1 ATP. To activate CFTR, 20 µM FSK was added to the extracellular solution to phosphorylate the channel. In some samples the combination FSK + 50 µM GEN (positive control) as well as FSK + 10 µM peptides were added to the extracellular solution to test their potentiator activity.
For both patch configurations, the protocol to correlate current intensity and voltage for stimulation consisted of 500-ms voltage steps from -100 to + 100 mV or from -80 to + 120 mV in 20 mV increments, starting from a holding potential of -60 mV. The time-dependence of CFTR activation and inactivation was monitored by application of steps of 50 ms pulses to − 100, − 50, 0, 50 and 100 mV every 5 s from a holding potential of − 60 mV. The interval between steps was 4 s. Membrane currents were filtered at 1 kHz and digitized at 5 kHz by a low–pass 4–pole Bessel filter. […]
Whole-cell membrane currents were recorded in null FRT cells not expressing CFTR by using the same experimental solutions and stimulation protocols as described in the main text for F508del- FRT.

[2] = tested on: F508del-FRT and wt-FRT cells; format: cell-based, Fischer rat
Experimental: (§1) To evaluate the lung epithelia integrity, FRT and CFBE41o- cells expressing mutated or functional CFTR were seeded on permeable supports (24 Millicell plates PSHT01QR1) and incubated for 24 h in their standard culture medium in the presence of peptides, at different concentration. DMSO, 0.1% v:v, final concentration) that was used to solubilize each compound was included as control. After 24 h, the medium was replaced with saline solution containing (in mM): 130 NaCl, 2.7 KCl, 1.5 KH2PO4, 1 CaCl2, 0.5 MgCl2, 10 glucose, 10 Na-Hepes (pH, 7.4). Saline solution was added to both apical and basolateral compartments of the permeable supports. Samples were incubated for 10 min at 37 °C and TEER was measured in basal conditions without CFTR activation, with the epithelial voltmeter (MILLICELL ERS-2, Millipore Burlington, MA).

[3] = tested on: F508del-CFBE41o- and wt-CFBE41o- cells; format: cell-based
Experimental: as §1

F508del-CFTR [4] = experiment: CFTR-mediated transepithelial conductance (TEER), F508del-FRT; format: cell-based; conditions: F508del-FRT pre-incubated 24 h with 1 µM VX-809; 10 µM peptide + 20 µM FSK, 10 min; inhibition with 30 µM PPQ102; n ≥ 6
Experimental: To evaluate CFTR activation, the same saline solution was used. Cells expressing F508del mutation were incubated with 1 µM VX-809 to favor the mutant protein rescue. After measurement of basal TEER, 20 µM FSK + 10 µM GEN as positive control, or FSK + peptides at the desired concentration were added on the epithelium apical side. Finally, 30 µM PPQ102 was added on the epithelium apical side to block CFTR, so to measure the own activity of CFTR. TEER measurement was performed at 37 °C after 10 min from the addition of each compound. From the values of TEER measured before and after CFTR inhibition, we calculated the CFTR-dependent TEER for each condition. All values of TEER were converted to transepithelial conductance (TEEC) using the formula TEEC = 1/TEER [67].

[5] = cited from earlier work
Source text: (§2) During the last years, several studies have been conducted to identify compounds with suitable antibacterial properties. Antimicrobial peptides (AMPs) are a promising and effective therapeutic resource. Indeed, they rapidly kill microbial pathogens by perturbing their plasma-membrane thus limiting the induction of bacterial resistance compared to conventional antibiotics. In our laboratory, we identified a frog-skin derived membrane-active cationic AMP, i.e., Esc(1–21) […]-NH2 [24], with biocidal activity against the planktonic and the biofilm forms of P ...

[6] = tested on: P. aeruginosa pulmonary infection; conditions: cited from earlier work
Source text: as §2

wt-CFBE and F508del-CFBE = conditions: monolayers of wt-CFBE and F508del-CFBE; cited from earlier work
Source text: as §2

[7] = ivacaftor-based treatment of patients; cited from earlier work
Source text: Many proof-of-concept studies have disclosed that chemically modified ATP analogs and small organic molecules (e.g., isoflavones) have good potentiation effect by enhancing CFTR channel gating. However, the expected unspecific binding of ATP analogs to other proteins implicated in physiological functions limits the development of these molecules to the clinic. Other compounds capable of improving the activity of mutant CFTR can promote its phosphorylation by inhibiting phosphodiesterase’s activity, to heighten the intracellular level of cAMP. Ivacaftor was the first CFTR potentiator approved f ...

F508del-CFTR [8] = experiment: Inside-out patch-clamp (macro-patches), F508del-FRT cells; format: biochemical; conditions: 1 mM ATP + 125 nM PKA catalytic subunit + 10 µM peptide in intracellular bath, n ≥ 3
Experimental: Whole-cell and inside-out membrane currents were recorded in FRT cells stably expressing F508del CFTR after incubation with 1 µM of the corrector VX-809 for 24 h to increase mutated CFTR membrane expression.
For inside-out patch-clamp experiments, the pipette solution contained (in mM): 150 N-methyl-D-glucamine chloride (NMDG-Cl), 3 CaCl2, 2 MgCl2, 10 Na-Hepes (pH 7.3). The bath solution for these experiments contained (in mM): 150 NMDG-Cl, 2 MgCl2, 10 EGTA, 10 Na-Hepes, 1 ATP, which was supplemented with 125 nM catalytic subunit of PKA (Promega, […]) and peptides at 10 µM. Pipette electrical resistance for both whole-cell and inside-out experiments was 3–5 MΩ.
For both patch configurations, the protocol to correlate current intensity and voltage for stimulation consisted of 500-ms voltage steps from -100 to + 100 mV or from -80 to + 120 mV in 20 mV increments, starting from a holding potential of -60 mV. The time-dependence of CFTR activation and inactivation was monitored by application of steps of 50 ms pulses to − 100, − 50, 0, 50 and 100 mV every 5 s from a holding potential of − 60 mV. The interval between steps was 4 s. Membrane currents were filtered at 1 kHz and digitized at 5 kHz by a low–pass 4–pole Bessel filter.

## O=c1c(-c2ccc(O)cc2)coc2cc(O)cc(O)c12 [GEN, genistein]
[1]
  change of ion current: no significant change

## Gly-Ile-Phe-Ser-Lys-Leu-Ala-Gly-Lys-Lys-Ile-Lys-Asn-Leu-Leu-Ile-Ser-Gly-Leu-Lys-Gly- NH2 [Esc(1–21)]
[2]
  change of TEER / transepithelial conductance (G) versus DMSO control: do not alter
[3]
  change of TEER / transepithelial conductance (G) versus DMSO control: do not alter

## GIFSKLAGKKIKN[dL]LI[dS]GLKG-NH2 [Esc(1–21)-1c, diastereomer of Esc(1–21) carrying D-Leu14 and D-Ser17]
[2]
  change of TEER / transepithelial conductance (G) versus DMSO control: do not alter
[3]
  change of TEER / transepithelial conductance (G) versus DMSO control: do not alter
F508del-CFTR [4]
  CFTR-mediated conductance (ΔG) compared to FSK-treated samples: slightly more pronounced
[5]
  susceptibility to proteolytic degradation compared with Esc(1–21): less susceptible
[6]
  toxicity or inflammatory side events: without eliciting toxicity or inflammatory side events
[6]; mice
  effectiveness in contrasting P. aeruginosa pulmonary infection: higher effectiveness than the all-L counterpart
wt-CFBE and F508del-CFBE
  promotion of re-epithelialization compared with Esc(1–21): more efficient

## CC(C)(C)c1cc(C(C)(C)C)c(NC(=O)c2c[nH]c3ccccc3c2=O)cc1O [VX-770, ivacaftor]
[7]
  enhanced lung function: 10%

## Gly-Ile-Phe-Ser-Lys-Leu-Ala-Gly-Lys-Lys-Ile-Lys-Asn- DLeu -Leu-Ile-DphosphoSer-Gly-Leu-Lys-Gly-NH2 [[DLeu^14, DphosphoSer^17]Esc, Esc analog with DLeu14 and D-phosphoSer at position 17]
F508del-CFTR [4]
  CFTR-mediated conductance (ΔG) compared to FSK-treated samples: about twofold
F508del-CFTR [8]
  current intensity at + 100 mV compared to control basal conditions: ~ 2.5 fold

Reference: PMC8752549, “Esc peptides as novel potentiators of defective cystic fibrosis transmembrane conductance regulator: an unprecedented property of antimicrobial peptides” (Cellular and Molecular Life Sciences: CMLS, 2021)
